The record followed here is patent US9096601B2 (CSPC Zhongqi Pharmaceutical Technology (Shijiazhuang) Co., …, priority 2010, dated 2015).

SMILES strings stand for the structures. pIC50: −log10 of the molar value.

Series [1] has as its target ALK (Homo sapiens (Human), UniProt Q9UM73). The series can be described thus: Kinase inhibitory activity, isotopic labeling (γ-33P-ATP). It is filed as biochemical. The note with it: compound at 10 μM.
The target in series [2] is c-SRC (Homo sapiens (Human), UniProt P12931). Described as above. The format is biochemical. The note with it: compound at 10 μM.
Sequence of c-SRC (P12931 whole entry, looked up): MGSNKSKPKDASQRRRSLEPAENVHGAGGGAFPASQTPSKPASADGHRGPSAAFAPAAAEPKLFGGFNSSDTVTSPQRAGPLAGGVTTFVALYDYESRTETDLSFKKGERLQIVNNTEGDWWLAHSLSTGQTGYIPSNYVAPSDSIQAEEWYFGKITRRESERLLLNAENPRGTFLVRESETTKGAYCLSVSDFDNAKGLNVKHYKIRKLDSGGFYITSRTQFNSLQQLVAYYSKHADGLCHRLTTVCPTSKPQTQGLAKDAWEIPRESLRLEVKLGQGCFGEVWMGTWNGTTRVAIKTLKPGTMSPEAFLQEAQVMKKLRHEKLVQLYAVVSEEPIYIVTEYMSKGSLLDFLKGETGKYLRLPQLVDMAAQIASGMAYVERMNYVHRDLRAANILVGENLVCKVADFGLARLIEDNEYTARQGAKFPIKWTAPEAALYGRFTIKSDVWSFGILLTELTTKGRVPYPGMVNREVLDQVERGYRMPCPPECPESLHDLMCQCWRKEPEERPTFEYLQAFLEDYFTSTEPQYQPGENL
For series [3], the target named is PDGFRα (Homo sapiens (Human), UniProt P16234). Described as above. The note with it: compound at 10 μM. The format is biochemical.
Sequence of PDGFRα (P16234 24-1089): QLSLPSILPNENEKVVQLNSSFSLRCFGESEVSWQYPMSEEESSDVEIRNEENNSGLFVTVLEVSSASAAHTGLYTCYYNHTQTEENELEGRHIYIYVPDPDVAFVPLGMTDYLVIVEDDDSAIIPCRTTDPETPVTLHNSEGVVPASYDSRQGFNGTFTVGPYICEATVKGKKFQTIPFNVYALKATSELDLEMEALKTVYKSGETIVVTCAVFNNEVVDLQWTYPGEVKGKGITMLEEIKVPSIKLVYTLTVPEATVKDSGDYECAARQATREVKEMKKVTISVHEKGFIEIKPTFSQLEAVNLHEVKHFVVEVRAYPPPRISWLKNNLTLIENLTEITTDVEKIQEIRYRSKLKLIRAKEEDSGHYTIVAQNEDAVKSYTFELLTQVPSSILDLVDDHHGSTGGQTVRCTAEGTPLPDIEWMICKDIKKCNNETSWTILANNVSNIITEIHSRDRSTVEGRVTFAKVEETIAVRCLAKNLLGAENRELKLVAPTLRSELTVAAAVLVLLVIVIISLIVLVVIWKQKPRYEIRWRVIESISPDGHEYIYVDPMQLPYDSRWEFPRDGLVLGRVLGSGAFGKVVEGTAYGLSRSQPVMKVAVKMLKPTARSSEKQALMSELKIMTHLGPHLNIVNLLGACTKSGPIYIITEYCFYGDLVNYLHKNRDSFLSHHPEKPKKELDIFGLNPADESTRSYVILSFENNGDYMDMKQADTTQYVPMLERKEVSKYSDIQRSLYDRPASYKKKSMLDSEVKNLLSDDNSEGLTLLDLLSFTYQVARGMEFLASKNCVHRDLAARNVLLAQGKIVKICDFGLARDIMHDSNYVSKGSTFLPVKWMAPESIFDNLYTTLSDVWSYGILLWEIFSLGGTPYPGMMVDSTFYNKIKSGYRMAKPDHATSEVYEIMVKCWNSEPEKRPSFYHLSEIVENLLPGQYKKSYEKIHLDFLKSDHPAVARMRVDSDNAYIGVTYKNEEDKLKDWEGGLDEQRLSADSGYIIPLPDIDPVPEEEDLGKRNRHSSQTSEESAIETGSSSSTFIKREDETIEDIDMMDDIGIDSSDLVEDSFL
Series [4] has as its target VEGFR2 (Homo sapiens (Human), UniProt P35968). The description is as above. The format is biochemical. The note with it: ATP 90 μM (Km). Summed up:
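Filter-binding radiometric format with γ-33P-ATP, 5-10 mU enzyme, pH 7.0 MOPS/MnCl2 buffer; scintillation counts after phosphate washes convert to inhibition rates, fitted for IC50.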

For series [5], the target named is c-KIT (Homo sapiens (Human), UniProt P10721). The series is described as above. The note with it: compound at 10 μM. It is filed as biochemical.
Series [6] concerns the target FLT3 (Homo sapiens (Human), UniProt P36888). Described as above. The format is biochemical. As to conditions: compound at 10 μM.
Series [7] addresses MET (Homo sapiens (Human), UniProt P08581). The description is as above. The format is biochemical. As to conditions: compound at 10 μM.
Series [8] has as its target BTK (Homo sapiens (Human), UniProt Q06187). The description is as above. The format is biochemical. The note with it: compound at 10 μM.
The subject of series [9] is human non-small cell lung carcinoma cell strain HCC827. Put plainly: In-vivo anti-tumor test, nude mouse subcutaneously transplanted non-small cell lung carcinoma model. As to conditions: nude mice, intragastric. The source says: The object of this assay was to determine the in-vivo anti-tumor effect of the present compound. In this assay, a nude mouse subcutaneously transplanted non-small cell lung carcinoma model was used to test the present compound 8-10 for the in-vivo anti-tumor activity. The used cell strain was human non-small cell lung carcinoma cell strain HCC827.
BALB/C nude mice, aged 6-8 weeks, were inoculated with HCC827 cell subcutaneously at the posterior segment of rib in a concentration of about 5×10^6 cells/0.1 ml per mouse. Upon the growth of the tumor up to 200-300 mm^3 (about 20 days), mice were grouped (n=6) and administrated intragastrically.
Observation Indices: the mice were measured every three days for the weight, and the length and width of tumor, and the tumor volume was calculated as length×width^2×0.52. […] 3. Results

Series [10] relates to acute myelogenous leukemia cell strain MV4-11. The series can be described thus: In-vitro tumor cell proliferation inhibition, MTT. As to conditions: 72 hours. It is filed as cell-based, human.
In series [11] the test system is colon cancer cell strain HCT116. The series can be described thus: In-vitro tumor cell proliferation inhibition, MTT. It is filed as cell-based, human. The note with it: 72 hours.

Sequence of VEGFR2 (P35968 20-1356): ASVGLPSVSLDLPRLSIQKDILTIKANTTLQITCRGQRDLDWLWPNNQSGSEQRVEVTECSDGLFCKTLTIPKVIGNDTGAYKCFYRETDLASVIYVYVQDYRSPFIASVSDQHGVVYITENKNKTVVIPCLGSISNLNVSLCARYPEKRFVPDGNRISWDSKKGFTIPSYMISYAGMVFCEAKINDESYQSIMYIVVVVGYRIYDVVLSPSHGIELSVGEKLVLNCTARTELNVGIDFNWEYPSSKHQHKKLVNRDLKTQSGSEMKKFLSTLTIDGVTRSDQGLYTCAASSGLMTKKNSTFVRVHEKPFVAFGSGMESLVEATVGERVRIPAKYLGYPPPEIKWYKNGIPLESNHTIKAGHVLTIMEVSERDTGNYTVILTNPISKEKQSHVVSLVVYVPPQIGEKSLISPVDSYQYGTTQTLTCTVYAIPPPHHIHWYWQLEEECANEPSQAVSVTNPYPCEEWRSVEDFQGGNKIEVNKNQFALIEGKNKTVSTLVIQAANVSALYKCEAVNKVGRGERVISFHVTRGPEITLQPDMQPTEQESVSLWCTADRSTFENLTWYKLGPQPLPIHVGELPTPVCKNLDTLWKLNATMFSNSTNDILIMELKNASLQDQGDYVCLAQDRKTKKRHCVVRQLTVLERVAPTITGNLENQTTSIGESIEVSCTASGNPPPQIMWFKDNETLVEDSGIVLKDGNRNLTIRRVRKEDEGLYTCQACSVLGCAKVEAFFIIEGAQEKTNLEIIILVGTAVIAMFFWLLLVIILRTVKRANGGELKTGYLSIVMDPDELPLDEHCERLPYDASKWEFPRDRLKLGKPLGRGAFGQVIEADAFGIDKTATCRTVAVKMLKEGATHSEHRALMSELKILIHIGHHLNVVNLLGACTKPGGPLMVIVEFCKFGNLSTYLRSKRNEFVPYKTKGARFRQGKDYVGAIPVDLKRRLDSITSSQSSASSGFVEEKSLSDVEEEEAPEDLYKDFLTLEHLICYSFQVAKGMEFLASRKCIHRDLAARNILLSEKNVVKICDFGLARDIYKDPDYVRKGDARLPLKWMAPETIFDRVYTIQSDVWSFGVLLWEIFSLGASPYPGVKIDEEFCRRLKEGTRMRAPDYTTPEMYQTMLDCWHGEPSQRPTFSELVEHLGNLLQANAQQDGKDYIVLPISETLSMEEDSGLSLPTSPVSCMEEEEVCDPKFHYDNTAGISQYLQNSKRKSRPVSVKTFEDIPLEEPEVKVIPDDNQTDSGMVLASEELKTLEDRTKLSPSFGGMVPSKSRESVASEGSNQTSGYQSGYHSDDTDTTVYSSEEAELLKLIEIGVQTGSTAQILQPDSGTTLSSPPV
Sequence of FLT3 (P36888 27-993): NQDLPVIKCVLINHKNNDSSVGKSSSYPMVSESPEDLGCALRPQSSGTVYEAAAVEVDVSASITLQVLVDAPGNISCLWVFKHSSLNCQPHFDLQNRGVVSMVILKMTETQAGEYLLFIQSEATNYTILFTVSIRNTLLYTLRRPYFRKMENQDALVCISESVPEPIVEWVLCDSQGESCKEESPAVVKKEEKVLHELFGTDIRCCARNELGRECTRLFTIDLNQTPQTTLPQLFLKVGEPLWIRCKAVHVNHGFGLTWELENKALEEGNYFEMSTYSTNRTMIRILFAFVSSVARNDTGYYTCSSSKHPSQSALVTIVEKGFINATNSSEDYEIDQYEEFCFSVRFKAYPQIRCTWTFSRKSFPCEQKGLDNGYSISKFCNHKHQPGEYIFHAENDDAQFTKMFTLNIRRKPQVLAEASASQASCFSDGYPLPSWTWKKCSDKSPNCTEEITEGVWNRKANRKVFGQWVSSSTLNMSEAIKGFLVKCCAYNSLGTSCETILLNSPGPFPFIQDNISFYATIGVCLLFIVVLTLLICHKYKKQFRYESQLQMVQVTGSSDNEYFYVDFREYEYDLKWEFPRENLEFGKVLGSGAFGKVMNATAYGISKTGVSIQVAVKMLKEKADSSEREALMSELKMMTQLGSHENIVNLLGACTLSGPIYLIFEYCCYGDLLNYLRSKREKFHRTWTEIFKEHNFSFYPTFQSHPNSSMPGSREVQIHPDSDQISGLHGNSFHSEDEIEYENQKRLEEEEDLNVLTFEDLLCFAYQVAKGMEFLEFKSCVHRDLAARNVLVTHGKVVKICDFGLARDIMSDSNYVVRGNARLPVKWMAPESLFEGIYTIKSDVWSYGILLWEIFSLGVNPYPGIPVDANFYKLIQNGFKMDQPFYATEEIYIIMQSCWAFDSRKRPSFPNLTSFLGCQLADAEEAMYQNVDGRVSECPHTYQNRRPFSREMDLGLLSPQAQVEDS
Sequence of BTK (Q06187 whole entry): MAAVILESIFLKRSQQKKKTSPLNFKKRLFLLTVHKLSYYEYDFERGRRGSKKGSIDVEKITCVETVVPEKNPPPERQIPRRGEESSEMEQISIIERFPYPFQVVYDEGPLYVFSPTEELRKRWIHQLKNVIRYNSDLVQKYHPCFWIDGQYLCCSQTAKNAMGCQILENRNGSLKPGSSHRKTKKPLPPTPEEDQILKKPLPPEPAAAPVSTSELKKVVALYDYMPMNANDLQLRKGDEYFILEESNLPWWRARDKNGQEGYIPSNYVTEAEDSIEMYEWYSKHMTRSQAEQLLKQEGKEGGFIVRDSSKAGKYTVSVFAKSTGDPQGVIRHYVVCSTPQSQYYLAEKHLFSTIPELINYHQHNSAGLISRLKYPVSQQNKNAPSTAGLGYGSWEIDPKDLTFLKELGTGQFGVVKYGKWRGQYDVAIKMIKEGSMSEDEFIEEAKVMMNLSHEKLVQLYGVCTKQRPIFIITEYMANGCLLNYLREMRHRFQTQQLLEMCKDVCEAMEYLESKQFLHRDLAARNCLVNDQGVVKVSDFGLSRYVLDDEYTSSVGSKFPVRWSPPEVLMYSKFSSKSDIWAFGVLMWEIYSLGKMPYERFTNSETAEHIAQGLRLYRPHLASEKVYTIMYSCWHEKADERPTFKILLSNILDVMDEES

For orientation: pIC50 means −log10 of the IC50, conventionally taken in molar units. With `CC(C)n1c(Nc2ccccc2)nc2cnc(Nc3ccc(N4CCN(C)CC4)cc3)nc21` [Compounds 8-10], in series [1], the “The kinase activity inhibitory rate (%) by the tested compounds at 10 μM ALK” value is listed as 45%. In series [2], the “The kinase activity inhibitory rate (%) by the tested compounds at 10 μM c-SRC” value stood at 23%. For the same compound, the “The kinase activity inhibitory rate (%) by the tested compounds at 10 μM PDGFRα” value in series [3] was determined as 87%. Moreover, the values for the pIC50 in series [4], in [10] and in [11] were less than 6.00, 6.99 and 5.96, respectively. Also, in [5], the “The kinase activity inhibitory rate (%) by the tested compounds at 10 μM c-KIT” value is reported as 3%. Also, the “The kinase activity inhibitory rate (%) by the tested compounds at 10 μM FLT3” value in series [6] came to 87%. Also, the “The kinase activity inhibitory rate (%) by the tested compounds at 10 μM MET” value in series [7] was determined as 64%. The “The kinase activity inhibitory rate (%) by the tested compounds at 10 μM BTK” value in series [8] is listed as 32%. Moreover, the “in-vivo tumor growth inhibition” value in series [9] (HCC827 xenograft, 2 mg/kg q.d. or higher (2, 5, 10, 20 mg/kg q.d.)) is recorded as “substantial in-vivo growth inhibition”. Also, the “toxicity (untoward reactions: weight reduction, exanthema, diarrhea)” value in [9] (2-20 mg/kg q.d.) is “low toxicity”.
